Results: patent US20080269188A1, “Oatp-C Gene C463a Polymorphism Underlies Variable Response to Statin Therapy” (INSERM, priority 2005, published 2008)
Marks after values point to notes of the source that are not given here.

Columns and labels:
[1] = taken from Buse J., Clinical Diabetes 2003; cited from earlier work
[2] = FAME study: plasma lipid response to Fluvastatin XL 80 mg in elderly patients with primary hypercholesterolemia, overall and by OATP-C C463A (Pro155Thr) genotype; format: in vivo, human
Experimental: The characteristics of the study subjects have been previously reported.^26 Patients were enrolled in a large scale, randomized, double-blind, placebo-controlled multicenter study conducted in France, Italy, Spain, Belgium and Israel. Initially, the aim of this study was to investigate the efficacy and safety of extended-release (XL) Fluvastatin 80 mg once daily for up to one year in elderly patients with primary hypercholesterolemia. The study was approved by the relevant Ethic Committees, and informed consent Was given by all subjects before entering the study. Men or women, aged 70-85 years, with primary hypercholesterolemia (total cholesterol ≧251 mg/dL, triglycerides ≦407 mg/dL and LDL cholesterol ≧159 mg/dL after dietary intervention) were eligible for inclusion. […] OATP-C genotypes were determined in 420 subjects from the Fluvastatin arm of the study.
For each subject, plasma lipid response was calculated based on values obtained at baseline (week—2) and 2 months after treatment. Laboratory methods for lipid and lipoprotein measurements are described elsewhere 26; all parameters were measured at a central laboratory. […] Endpoint fluorescence (FAM™, VIC® or both), corresponding to cleavage of the allele-specific probe (allelic discrimination) was measured using an ABI PRISM 7000 Sequence Detection System (Applied Biosystems, Foster City, Calif.). […]

[3] = ALERT trial (renal transplantation): lipid parameters after 6 weeks of fluvastatin by OATP-C Pro155Thr genotype; format: in vivo, human; parameters: TC_Visit 2 / TC_Diff / TG_Visit 2 / TG_Diff / HDL_Visit 2 / HDL_Diff / LDL_Visit 2 / LDL_Diff: unit not given here; settings: LSMEAN; for HDL_% change / LDL_% change / TC_% change / TG_% change: 6 weeks; for HDL_Visit 2 / LDL_Visit 2 / TC_Visit 2 / TG_Visit 2: visit 2 (6 weeks of treatment), 40 mg daily; for HDL_Diff / LDL_Diff / TC_Diff / TG_Diff: week 6 minus visit zero
Experimental: Given the success of statins, and fluvastatin in particular, in lowering lipid levels and reducing cardiovascular disease in the general population, the Assessment of LEscol (Fluvastatin) in Renal Transplantation (ALERT) clinical trial was performed (Holdaas et al., 2003). This multicenter, randomized, double-blind placebo-controlled study followed […] renal transplant patients for 5-6 years. Patients were assigned to a placebo or fluvastatin (40 mg daily for two years, and 80 mg daily for the remainder of the study) group, and monitored in laboratory blood analysis every six months and annual electrocardiography.
The Alert trial was conducted in centres in the Scandinavian countries, UK, Germany, Belgium, Switzerland and Canada, with only minimal number of non-Caucasian patients. The demographic and baseline LDL-C characteristics are similar between the fluvastatin treatment and the placebo groups, as illustrated in Table 5.
Blood samples from each consenting patient were collected at the individual trial sites. The genomic DNA of each patient was extracted from the blood using the […]™ DNA Isolation Kit (D-50K) and then genotyping was performed. Ultimately, 1375 ALERT samples were genotyped: 693 from the Fluvastatin group (of 1050 total patients) and 682 from the placebo group (of 1052 total patients).
The primary efficacy variables tested were: LDL cholesterol at visit 2 (6 weeks of treatment) and Change in LDL cholesterol. The change in LDL cholesterol was calculated as the difference between the week 6 value and the visit zero value, for patients for whom both numbers were available. Additional efficacy variables tested in the full set of genotypes were: • HDL cholesterol at visit 2 (6 Weeks of treatment) • Change in HDL cholesterol • Total cholesterol at visit 2 (6 weeks of treatment) • Change in total cholesterol • Triglycerides at visit 2 (6 weeks of treatment) • Change in triglycerides.
Association tests used categorical genotypes as the independent variable, with no assumption about dominance, and the various efficacy variables as dependent variables. Tests of continuous dependent variables used an ANCOVA analysis. No adjustment was made for multiple testing effect.
The relevant association test for each phenotype was first performed in the Fluvastatin treated patient set. SNP-phenotype associations with a threshold of p<0.05 were then tested separately in the placebo set to determine Fluvastatin-related pharmacogenetic effect.

For CC(C)c1c(C(=O)Nc2ccccc2)c(-c2ccccc2)c(-c2ccc(F)cc2)n1CC[C@@H](O)C[C@@H](O)CC(=O)O [Atorvastatin, atorvastatin], the Equipotent dose [1] is listed as 10 mg.
In the case of CC(C)n1c(/C=C/C(O)CC(O)CC(=O)O)c(-c2ccc(F)cc2)c2ccccc21 (stereo not shown) [Fluvastatin, fluvastatin], the Equipotent dose [1] is listed as 80* mg, the “LDL-C, % Change” value ([2]; C463A genotype AA (Thr/Thr), n=15, baseline vs 2 months, mean ± SD) is listed as −41% and the “absolute gain in LDL-C reduction” value ([2]; homozygous Thr/Thr vs homozygous wild-type Pro/Pro) is listed as 10%. For the same compound, the HDL_% change ([3]; Pro155Thr genotype AA, n=16) was 18%, the LDL_% change ([3]; Pro155Thr genotype AA, n=16) was −34% and the TC_% change ([3]; Pro155Thr genotype AA, n=16) was −20%. For the same compound, the TG_% change ([3]; Pro155Thr genotype AA, n=16) was 8%, the “HDL_Visit 2” value ([3]; Pro155Thr genotype AA, n=16) was 1.58 and the “LDL_Visit 2” value ([3]; Pro155Thr genotype AA, n=16) was 2.68. The “TC_Visit 2” value ([3]; Pro155Thr genotype AA, n=16) was 5.17, the “TG_Visit 2” value ([3]; Pro155Thr genotype AA, n=16) was 2.12 and the HDL_Diff ([3]; Pro155Thr genotype AA, n=16) was 0.23. For the same compound, the LDL_Diff ([3]; Pro155Thr genotype AA, n=16) was −1.45, the TC_Diff ([3]; Pro155Thr genotype AA, n=16) was −1.27 and the TG_Diff ([3]; Pro155Thr genotype AA, n=16) was −0.037. The HDL_% change ([3]; Pro155Thr genotype AC, n=167) was 8%, the LDL_% change ([3]; Pro155Thr genotype AC, n=167) was −23% and the TC_% change ([3]; Pro155Thr genotype AC, n=167) was −16%. The TG_% change ([3]; Pro155Thr genotype AC, n=167) was −3%, the “HDL_Visit 2” value ([3]; Pro155Thr genotype AC, n=167) was 1.4 and the “LDL_Visit 2” value ([3]; Pro155Thr genotype AC, n=167) was 3.12. For the same compound, the “TC_Visit 2” value ([3]; Pro155Thr genotype AC, n=167) was 5.39, the “TG_Visit 2” value ([3]; Pro155Thr genotype AC, n=167) was 1.98 and the HDL_Diff ([3]; Pro155Thr genotype AC, n=167) was 0.05. The LDL_Diff ([3]; Pro155Thr genotype AC, n=167) was −1.02, the TC_Diff ([3]; Pro155Thr genotype AC, n=167) was −1.05 and the TG_Diff ([3]; Pro155Thr genotype AC, n=167) was −0.181. It also gave an HDL_% change ([3]; Pro155Thr genotype CC, n=468) of 9%, an LDL_% change ([3]; Pro155Thr genotype CC, n=468) of −28% and a TC_% change ([3]; Pro155Thr genotype CC, n=468) of −18%. For the same compound, the TG_% change ([3]; Pro155Thr genotype CC, n=468) was −5%, the “HDL_Visit 2” value ([3]; Pro155Thr genotype CC, n=468) was 1.43 and the “LDL_Visit 2” value ([3]; Pro155Thr genotype CC, n=468) was 2.91. For the same compound, the “TC_Visit 2” value ([3]; Pro155Thr genotype CC, n=468) was 5.21, the HDL_Diff ([3]; Pro155Thr genotype CC, n=468) was 0.08 and the LDL_Diff ([3]; Pro155Thr genotype CC, n=468) was −1.22. The TC_Diff ([3]; Pro155Thr genotype CC, n=468) was −1.23 and the TG_Diff ([3]; Pro155Thr genotype CC, n=468) was −0.226.
For CC[C@H](C)C(=O)O[C@H]1C[C@@H](C)C=C2C=C[C@H](C)[C@H](CC[C@@H]3C[C@@H](O)CC(=O)O3)[C@H]21 [Lovastatin, lovastatin], the Equipotent dose [1] is listed as 60* mg.
